The term solubility denotes how much of the substance goes into solution per volume. A lower solubility goes with little dissolved substance.

Among the data in ChEMBL document CHEMBL3608211, “Exploration of Pharmacophore in Chrysosplenol C as Activator in Ventricular Myocyte Contraction” (ACS Med Chem Lett, 2015) are Activity and solubility values, retold here.

Series [1] can be described thus: Positive inotropic effect in Sprague-Dawley rat ventricular myocytes assessed as change in ventricular cell contractility at 10 uM by video edge detector relative to control. The format is functional, Ventricular myocyte.
A short description of series [2]: Positive inotropic effect in Sprague-Dawley rat ventricular myocytes assessed as change in ventricular cell contractility at 50 uM by video edge detector relative to control. Type of series: functional, Ventricular myocyte.
The species entered for another series is Oryctolagus cuniculus. The series can be described thus: Activation of skeletal myosin S1 ATPase in rabbit psoas muscle at 10 uM in presence of actin thin filament complex. The format is tissue-based.
For another series, the species on record is Gallus gallus. The experiment in a line: Activation of smooth myosin S1 ATPase in chicken gizzard at 10 uM in presence of actin thin filament complex.
The species named for another series is Bos taurus. The experiment in a line: Activation of cardiac myosin S1 ATPase in bovine sarcomere at 10 uM by spectrophometric analysis in presence of actin thin filament complex relative to control.
Series [3] can be described thus: Solubility of the compound in DMSO/tyrode solution. Type of series: physicochemical.
A short description of series [4]: Positive inotropic effect in Sprague-Dawley rat ventricular myocytes assessed as change in ventricular cell contractility at 1 uM by video edge detector relative to control. Type of series: functional, Ventricular myocyte.
The nature of series [5]: Positive inotropic effect in Sprague-Dawley rat ventricular myocytes assessed as change in ventricular cell contractility at 400 nM by video edge detector relative to control. Type of series: functional, Ventricular myocyte.

≈ marks a conversion by molar mass, not a printed value. Calls of active or inactive are those of the source. The calls are words filed in the database; no cut-off is given here.

On to `COc1ccc2c(=O)c(O)c(-c3ccc(O)cc3)oc2c1`, for which the Activity is given as 8.87% in series [1] and 23.1% in series [2].
For `COc1cc(-c2cc(=O)c3ccc(Cl)cc3o2)ccc1O`, the Activity in series [1] and in series [2] was 0% each time.
As to `COc1c(-c2cccc(O)c2)oc2cc(Cl)ccc2c1=O`, the Activity in series [1] was 54.8%; in series [2] it was 53.9%; in the series filed under Bos taurus it was 38.7%. Further, the result in the series filed under Oryctolagus cuniculus and in the series filed under Gallus gallus was inactive.
As for `COc1cc(-c2oc3cc(OC)c(O)c(O)c3c(=O)c2OC)ccc1O` [CHRYSOSPLENOL C], the values for the Activity (in series [1]; in series [2]; in the series filed under Bos taurus) were 16.6%, 53% and 28.1%, respectively. In addition, the outcome in the series filed under Oryctolagus cuniculus and in the series listed under Gallus gallus was inactive. For the same molecule, the solubility in series [3] worked out at 14.1 µg/mL (≈ 39.1 µM).
For `O=c1c(O)c(-c2ccc(O)cc2)oc2cc(Cl)ccc12`, the results for the Activity in series [1] and in series [2] were 0% and 11%, respectively.
Take `COc1cc(-c2oc3cc(Cl)ccc3c(=O)c2O)ccc1O`: the Activity in series [1] is listed as 23.5%; in series [2] it was 57.3%.
The corresponding values for `COc1cc(/C=C/C(=O)c2ccc(Cl)cc2O)ccc1O` are 0% and 0%.
`COc1cccc(-c2oc3cc(Cl)ccc3c(=O)c2OC)c1`: the Activity in series [1] came to 16.6%; in series [2], 23.6%.
For the molecule `COc1c(-c2ccc(O)cc2)oc2cc(Cl)ccc2c1=O`, the Activity in series [1] worked out at 49.6%; in series [2], 62.1%; in the series listed under Bos taurus, 28.9%. In addition, the outcome in the series filed under Oryctolagus cuniculus and in the series listed under Gallus gallus was inactive.
As for `COC(=O)N1CCN(Cc2cccc(NC(=O)Nc3ccc(C)nc3)c2F)CC1` [OMECAMTIV MECARBIL], the Activity in series [4] is 33.8%; in series [5], 59.3%; in the series filed under Bos taurus, 80.4%.
In the case of `COc1ccc2c(=O)c(OC)c(-c3ccc(O)c(OC)c3)oc2c1`, the Activity in series [1] was determined as 60.7%; in series [2], 45.3%; in the series filed under Bos taurus, 33.7%. In addition, the outcome in the series listed under Oryctolagus cuniculus and in the series listed under Gallus gallus was inactive. This molecule displayed a solubility in series [3] of 17.1 µg/mL (≈ 52 µM).
On to `COc1c(-c2ccc(Cl)cc2)oc2cc(Cl)ccc2c1=O`, for which the Activity in series [1] and in series [2] was 0% throughout.
With `COc1ccc(-c2oc3cc(OC)c(OC)c(O)c3c(=O)c2OC)cc1OC` [ARTEMETIN], the Activity turned out to be 8.7% in series [1] and 21.6% in series [2].
Consider `COc1cc(-c2oc3cc(Cl)ccc3c(=O)c2OC)ccc1O`, for which the Activity in series [1] stood at 43.9%; in series [2] it was 41.8%; in the series listed under Bos taurus it was 36.4%. The outcome in the series filed under Oryctolagus cuniculus and in the series filed under Gallus gallus was inactive.
`COc1cc(-c2oc3ccc(O)cc3c(=O)c2OC)ccc1O`: the Activity in series [1] is 3.9%; in series [2], 9.3%.
Taken in the same sequence, the figures for `COc1cc(-c2oc3ccccc3c(=O)c2O)ccc1O` were 10.5% and 10.3%.
Consider `COc1cc(-c2oc3ccccc3c(=O)c2OC)ccc1O`, for which the figures for the Activity in series [1] and in series [2] were 30.5% and 44.9%, respectively.
The corresponding values for `COc1ccc2c(=O)c(OC)c(-c3ccc(Cl)cc3)oc2c1` are 0% and 0%.
Taken in the same sequence, the figures for `COc1cccc(-c2oc3cc(Cl)ccc3c(=O)c2O)c1` were 0% and 0%.
Take `COc1ccc2c(=O)c(O)c(-c3ccc(O)c(OC)c3)oc2c1`: the Activity in series [1] was 8.17%; in series [2] it was 3.98%; in the series filed under Bos taurus it was 0%.
The corresponding values for `COc1cc(-c2oc3cccc(O)c3c(=O)c2OC)ccc1O` are 4.2%, 12.3% and 0%.
For `COc1cc(-c2oc3ccc(O)cc3c(=O)c2O)ccc1O`, the Activity in series [1] and in series [2] was 0% in each case.
With `COc1cc(-c2oc3cccc(O)c3c(=O)c2O)ccc1O`, the Activity in series [1] and in series [2] was 0% each time.
`COc1ccc2c(=O)c(OC)c(-c3ccc(O)cc3)oc2c1`: the values for the Activity (in series [1]; in series [2]; in the series listed under Bos taurus) were 42.1%, 38.6% and 30.9%, respectively. Besides, the outcome in the series filed under Oryctolagus cuniculus and in the series filed under Gallus gallus was inactive.
